The results in this text go back to US20180209962A1, “SCREENING METHOD USING INDUCED NEURONS” (KYOTO UNIVERSITY, priority 2014, published 2018).

Holding throughout (format): cell-based
Assay [1] deals with human normal iNs. Put plainly: Spontaneous firing rate using a MEA system. The conditions noted are these: final concentration 1 μg/ml. On the procedure:
iPSCs for neural differentiation were inoculated to a culture dish for the exclusive use of MEA coated with poly-L-lysine and Matrigel, and induced to differentiate into neurons according to the [Approach 2]. At day 8 (mouse iNs) or day 12 (human iNs), extracellular electrical recordings were measured using a multielectrode array system (MEA60, Multi Channel Systems MCS GmbH). Data was obtained using MC_Rack software (extracellular electrical recordings). Offline Sorter ver. 3 (Plexon Inc.) was used in spike analysis. The spikes were sorted and then analyzed using Neuroexplorer software (Nex Technologies, LLC).
A culture supernatant of human tauopathy iNs or human normal iNs of days 12 to 14 was added to human normal iNs of day 20, and a spontaneous firing rate was measured using the MEA system of the [Approach 6]. […] By contrast, in the human normal iNs supplemented with the culture supernatant of the human normal iNs, no increase in spontaneous firing rate occurred substantially (FIGS. 12E and 12F).
The P301S tau monomer or the P301S tau oligomer was added (final concentration: 1 μg/ml) to the culture system of human normal iNs, and a spontaneous firing rate was measured using a MEA system ([Approach 6]). […]

The test system of assay [2] is human normal iNs. Put plainly: Cell survival rate of human normal iNs after addition of P301S tau monomer or oligomer. The conditions noted are these: for cell survival rate: two days later. The method, then:
FIGS. 13D and 13F show results of adding the tau monomer or the tau oligomer of FIG. 13A to a medium of human normal iNs of day 20 and measuring a spontaneous firing rate using a MEA system (FIG. 13D). The arrows represent the timing at which the tau monomer or the tau oligomer was added. FIG. 13E is a graph indicating the ratio of spike number between before and after the addition.
P301S mutant human tau produced as a recombinant protein was oligomerized by incubation in the presence of heparin. Specifically, 0.5 mg/ml tau protein was incubated at 37° C. for 16 hours in a 10 mM HEPES buffer (pH 7.4) containing 10 μM heparin (Sigma-Aldrich Co. LLC) and 100 mM NaCl (Sahara N. and Takashima A, EMBO J., 26: 5143-52, 2007). Then, the solution was treated at 70° C. for 15 minutes and then subjected to SDS-PAGE and silver staining. As is evident, the tau before the incubation in the presence of the heparin was mostly monomeric and dimeric, whereas the tau after the incubation included a large number of trimeric or larger associates (i.e., tau oligomers). Hereinafter, the tau before the incubation in the presence of the heparin is referred to as a “P301S tau monomer”, and the tau after the incubation is referred to as a “P301S tau oligomer”.
The P301S tau monomer or the P301S tau oligomer was added to the culture system of human normal iNs, followed by cell survival rate analysis two days later.

Assay [3] has as its system mouse tauopathy iNs. Put plainly: Cell survival rate of mouse tauopathy iNs. The conditions noted are these: added at day 7, survival at day 10. The method, then:
(§1) FIG. 7 FIGS. 7A and 7B show results of adding AP-5 (final concentration: 25 μM) or CNQX (final concentration: 25 μM) to mouse tauopathy iNs or mouse normal iNs of day 5, preparing a culture supernatant and cell extracts 48 hours later, and analyzing the amounts of tau and a tau oligomer contained in the culture supernatant and the cell extracts by dot blot (FIG. 7A), and the results of quantifying their signals (FIG. 7B). In FIGS. 7C and 7D, AP-5 or CNQX was added to mouse tauopathy iNs of day 7, and a survival rate at day 10 (=the number of live neurons at day 10/the number of live neurons at day 7)×100) was indicated in a graph.
(§2) AP-5 or CNQX was added to the culture system of mouse tauopathy iNs of day 5. 48 hours later, a culture supernatant and cell extracts were prepared therefrom, and the amount of a tau oligomer, the amount of human tau, and the total amount of tau were analyzed by dot blot (FIGS. 7A and 7B). Also, AP-5 or CNQX was added to the culture system of mouse tauopathy iNs of day 7. Three days later, a cell survival rate was calculated (FIGS. 7C and 7D).

In assay [4] the test system is mouse tauopathy iNs. Nature of the assay: Dot blot of tau oligomer in culture supernatant and cell extracts of mouse tauopathy iNs. The conditions noted are these: added at day 5, 48 hours later, final concentration 25 μM. On the procedure:
as §1
Cells were recovered from the culture system of iNs, suspended in TBS (Tris buffered saline) containing a protease inhibitor and a phosphatase inhibitor, and then ultrasonicated to homogenize the cells. The cell homogenates were centrifuged (13,000×g, 15 min), and the supernatant was recovered as cell extracts. The cell extracts from the iNs of each type were blotted at 1.2 μg protein/spot onto a nitrocellulose membrane (pore size: 0.45 μm, GE Healthcare Japan Corp.).
Also, a medium was recovered from the cell culture system and subjected to low-speed centrifugation (1,000 rpm, 3 min) to precipitate cellular debris. The obtained supernatant was recovered as a culture supernatant. A 500 μl aliquot of each culture supernatant was transferred to a tube with an ultrafiltration filter (Vivaspin, molecular weight cutoff: 10 kD, GE Healthcare Japan Corp.) and concentrated to 50 μl. 2 μl of each concentrated sample was blotted onto the nitrocellulose membrane.
The nitrocellulose membrane obtained by the method was treated with various tau antibodies according to a standard method, followed by detection (Western Lightning Plus-ECL, PerkinElmer, Inc.) and signal quantification (ImageQuant LAS4000, GE Healthcare Japan Corp.). Tau 12, Tau 5, and TOC1 antibodies were used a human tau-specific antibody, an antibody recognizing human tau and mouse tau, and a tau oligomer-specific antibody, respectively. In Examples of the present application, the TOC1 antibody (Non-Patent Document 13) used was provided by Dr. Nicholas Kanaan from Department of Translational Science and Molecular Medicine, College of Human Medicine, Michigan State University (USA).
as §2

In assay [5] the test system is human tauopathy iNs. Nature of the assay: Cell survival rate of human tauopathy iNs. As to conditions: added at day 16, survival at day 21. The source says:
FIGS. 10A and 10B show results of measuring change in intracellular calcium concentration between before and after electric stimulation by use of a calcium imaging method in human tauopathy iNs or human normal iNs of day 12 (FIG. 10A, n=6). The arrows shown in the abscissa represent time points at which the cells were given electric stimulation. The ordinate (ΔF/F) depicts change in the fluorescence intensity of a calcium indicator (Fluo-8/AM) after the stimulation with respect to its baseline fluorescence intensity. FIG. 10B is a graph on which the largest value of the ΔF/F was plotted. […] The upper left panel “pre” depicts the human tauopathy iNs of day 16 before the addition of the reagent.
Next, AP-5 or CNQX was added to the culture system of human tauopathy iNs of day 16, and a cell survival rate at day 21 was calculated. The treatment with any of these agents tended to elevate the cell survival rate.

In assay [6] the test system is mouse tauopathy iNs and mouse normal iNs. Put plainly: Action potential / excitatory postsynaptic current of iNs in the presence of glutamate receptor antagonists. As to conditions: for generation of excitatory postsynaptic current: mouse normal iNs, CNQX and AP-5 administered together; for generation of action potential: mouse tauopathy iNs and mouse normal iNs, AP-5 and CNQX present together. The source says: FIGS. 1A and 1B show results of confirming, by immunostaining (FIG. 1A) or RT-PCR (FIG. 1B), that iPSCs prepared from a transgenic mouse harboring a P301S mutant human MAPT gene (tauopathy mouse), or its non-transgenic litter (normal mouse) express an undifferentiation marker (Esg1, Eras, Nanog, or SSEA1). In FIG. 1B, tauopathy mouse MEFs (MEF) were used as a negative control, and mouse embryonic stem cells (ESCs) were used as a positive control. […] The inserted drawings show enlarged diagrams of neurites.
Accordingly, these iNs were confirmed to be glutamatergic neurons.

Assay [7] concerns human tauopathy iNs. Nature of the assay: Sucrose density-gradient fractionation, localization of tau oligomer and lipid raft. The conditions noted are these: tauopathy iNs treated with MbCD, then sucrose density-gradient fractionation, Western blot. The source says: FIGS. 11A and 11B show results of preparing a culture supernatant and cell extracts from human tauopathy iNs or human normal iNs of day 14 and analyzing the amounts of human tau and a tau oligomer contained in the culture supernatant or the cell extracts by use of dot blot (FIG. 11A), and graphs on which their signals were quantified (FIG. 11B).
Lipid raft was biochemically isolated from human tauopathy iNs or human normal iNs and analyzed for its colocalization with a tau oligomer. Specifically, iNs were homogenized using a 29-gauge needle in a buffer containing 1% Lubrol and a protease inhibitor, and the cell homogenates were adjusted to a sucrose concentration of 40%. Then, a 0.7 ml aliquot thereof was fractionated by the sucrose density-gradient centrifugation method. The sucrose density gradient used was steps of 30% (1.4 ml), 27.5% (0.7 ml), 24% (1.4 ml), and 3% […] (5-ml tube), and the centrifugation conditions involved 50,000 rpm, 4° C., and 16 hours using Optima-MAX XP1 (Beckman Coulter, Inc.). After the centrifugation, a 0.7 ml aliquot was recovered from the upper layer to obtain 7 fractions (F1 to F7).
The lipid raft (GM1 ganglioside) was recovered into F2 and F3 of the human normal iNs and contained in F2 and F3 as well as in a small amount in F4 of human tauopathy iNs. The tau oligomer in the tauopathy iNs was contained mainly in F3 and also contained in F2 and F4. […]

“P301S tau monomer: recombinant P301S mutant human tau before the incubation with heparin, mostly monomeric and dimeric”: in assay [1], the spontaneous firing rate entry is given as “approximately 120 % of that before the addition”. Besides, the cell survival rate result in assay [2] (1 μg/ml) was “not changed”.
As to `N[C@H](CCCP(=O)(O)O)C(=O)O` [AP-5, D-(−)-2-amino-5-phosphononpentanoic acid], the cell survival rate result is “approximately 2 times the negative control” in assay [3], “significantly elevated” in assay [5] (12.5 μM) and “significantly elevated” in assay [5] (25 μM). Besides, in assay [4], the “amount of a tau oligomer contained in the cell extracts” value is “no significant change”. Further, in assay [4], the “amount of a tau oligomer contained in the culture supernatant” value was “approximately 50 % of the negative control”. In assay [6], the “generation of excitatory postsynaptic current” value is on record as “suppressed”. Moreover, the “generation of action potential” value in assay [6] is given as “did not generate action potential”.
For the compound Methyl-β-cyclodextrin [MbCD], the “recovery of tau oligomer into lipid raft fractions” value in assay [7] is “not recovered into F2 to F4”.
As for “P301S tau oligomer: recombinant P301S mutant human tau after incubation in the presence of heparin; trimeric or larger associates”, the spontaneous firing rate entry in assay [1] is “approximately 290 % of that before the addition”. Moreover, the cell survival rate result in assay [2] (0.1 μg/ml) and in assay [2] (1 μg/ml) was “significantly decreased” in each case. Moreover, in assay [2] (100 ng/ml), the “induction of cell death” value is reported as “tended to induce cell death, albeit not significant”.
For the compound `N#Cc1cc2c(cc1[N+](=O)[O-])=NC(=O)C(=O)N=2` [CNQX, 6-cyano-7-nitroquinoxaline-2,3-dione], in assay [3], the cell survival rate result is recorded as “approximately 2 times the negative control”. Also, in assay [4], the “amount of a tau oligomer contained in the cell extracts” value is on record as “approximately 70 % of the negative control” and the “amount of a tau oligomer contained in the culture supernatant” value is “approximately 50 % of the negative control”. Besides, in assay [5] (25 μM), the cell survival rate entry is on record as “significantly elevated”. For the same compound, in assay [6], the “generation of excitatory postsynaptic current” value is on record as “suppressed” and the “generation of action potential” value is given as “did not generate action potential”.
